The values below are quoted from earlier work in patent publication US7115654B2, “Caspase-1 inhibitors and methods for their use” (Sunesis Pharmaceuticals, Inc., priority 2002, dated 2006).

The data set deals with embryonic nigral cell suspension.

With Ac-YVAD-cmk, for the setting “hemiparkinsonian rats”, the functional recovery result is recorded as “substantially improved”. For the same substance, for the setting “neurons grafted to hemiparkinsonian rats”, the “survival of dopaminergic neurons” value was “increased”. In addition, the apoptosis in transplants entry (treatment of the embryonic nigral cell suspension) is reported as “reduced”. Further, under “treatment of the embryonic nigral cell suspension, in transplants”, the DNA fragmentation entry is “mitigated”.
